Experimental data reported in patent US11542263B2 (NeuroCycle Therapeutics, Inc., priority 2018, dated 2023).
In brackets after ≈: the same amount, converted by molar mass. Like-named read-outs stand apart in the source and are kept apart here.

Key:
Format in all cases: physicochemical
[1] = Intrinsic dissolution rate in SGF; conditions: 37° C., 100 rpm, linear scope within 2 to 120 min
Protocol: About 100 mg of Free Base Polymorphic Form A or Phosphate Polymorphic Form A was weighed into the intrinsic dissolution apparatus and the sample compressed for 1 minute with a compression force of ˜4 MPa to form a compacted pellet within the stainless-steel die. All loose powder was removed from the surface of the die. The intrinsic dissolution shaft was connected with the stainless-steel die and tightened so only one surface of the pellet was exposed (surface area=0.496 cm^2). The shaft in the spindle was adjusted to ensure the exposed surface of the compacted tablet was ˜3.8 cm from the bottom of the vessel when lowered. The temperature of chamber water was set at 37° C.±0.5° C., the shaft rotation at 100 rpm and the sampling time points at 2, 5, 10, 15, 30, 45, 60, 120 min. SGF was used as dissolution medium (900 mL). At each time point, solution samples were filtered, and the supernatant was analyzed by HPLC-UV.

[2] = Solubility in aqueous buffers and simulated fluids, 24 h, HPLC; conditions: for solubility at 24 h: 22.5 °C, thermodynamic from solid, ~20-25° C., read-out: Measured Conc. (solubility); for solubility at 24 h / Measured Conc. (solubility): ~24 h; for Measured Conc. (solubility): LOQ: 0.1 μg/mL
Protocol: About 2 mg of test article was added to a 1.5 mL vials which contained ˜1.0 mL of one medium listed in Table 7 and Table 8, which was then sealed. The mixtures were stirred at ˜20-25° C. for ˜24 hours. After that, the mixture was filtered by 0.45 μm filter membrane and then the supernatant was analyzed by HPLC.

[3] = Accelerated stability testing (HPLC assay and purity); conditions: for Assay (%): assay criterion 95%-105%
Protocol: The stability of Phosphate Polymorphic Form and Free Base Polymorphic Form A were evaluated under accelerated conditions.
Appropriately 2 mg of compounds were accurately weighed into a glass vial, then added diluents (ACN/water, 50/50) and sonicated for 2 minutes to dilute the target concentration of 0.2 mg/mL. The solution was equilibrated to room temperature and then the purity of the compounds was determined by HPLC.

[4] = pKa measurement by pH metric method; conditions: protonated TPA023B; titrated pH 2 to pH 12, extrapolated to aqueous pKa
Protocol: 10 mg of TPA023B was used for the pKa measurement.
ISA Water (Ionic Strength Adjusted Water, 0.15 M KCl): Accurately weigh 5.591 g KCl into a 500 mL volumetric flask, dissolve the sample with water, add to volume and mix well. Cosolvent of 60% (v/v) DMSO. Dissolve 2.795 g potassium chloride in 100 mL distilled or deionised water and make up to 250 mL with analytical grade DMSO (Ionic strength adjusted DMSO solution).
Cosolvent of 80% (v/v) MeOH: Dissolve 2.795 g potassium chloride in 50 mL distilled or deionized water and make up to 250 mL with analytical grade MeOH (Ionic strength adjusted MeOH solution).
pKa Determination by pH Metric Method (with or without Co-Solvent):
About 1 mg of sample was weighed into a sample vial, about 1.5 mL of ISA water or 1.5 mL of co-solvent (80% MeOH or 60% DMSO) was added into the vial automatically. The sample solution pre-acidified to pH 2.0 with 0.5 M HCl by the instrument automatically, then titrated three times with base to get pKa value from pH 2 to pH 12, and then extrapolated to get aqueous pKa value. Using this method, the pKa of TPA023B was determined to be 2.19.

[5] = Approximate solubility of TPA023B in organic solvents; conditions: thermodynamic from solid; for solubility at 4 h: 25 °C, RT; for solubility: 50° C.
Protocol: About 25 mg of compound (TPA023B) was added to a 2.0 mL vial containing 0.5 mL of each organic solvent in Table 14, which was then sealed. The mixtures were stirred-mixed at 800 rpm, RT (25° C.) for 4 hours. After that, if the compound was not completely dissolved in the solvent, the mixture was then stirred-mixed at 800 rpm, 50° C. overnight. If the final mixture was clear solution, the solution would be evaporated by vacuum drying oven at 35° C. and the resulted solid would be checked by XRPD. If the final mixture was slurry, the slurry would be centrifuged at 14000 rpm for 5 minutes and then the residues would be dried by vacuum drying oven at 35° C. and checked by XRPD.

[6] = HPLC analysis of degradation of TPA023B with acids in acetone (salt screening)
Protocol: Salt screening via reaction crystallization was preliminarily conducted using five acids in four solvents or solvent mixtures. […] For p-toluenesulfonic acid, about 20 mg of TPA023B and about 1.1 molar equivalents of the corresponding acid were stirred in about 0.5 mL of each solvent. For controls, about 20 mg of TPA023B was stirred in about 0.5 mL of the corresponding solvent. The resulting mixture was heated to about 50° C. with continuous stirring for about 4 hrs and slowly cooled to about 20-25° C. overnight.
HPLC analysis was conducted on the acetone samples to determine the extent of degradation that occurred, if any.

[7] = pH 3.0 citrate buffer (100 mM), initial pH 3.05
[8] = pH 4.5 citrate buffer (100 mM), initial pH 4.44
[9] = pH 7.4 PBS (50 mM), initial pH 7.40
[10] = pH 9.0 USP Buffer (50 mM), initial pH 8.94
[11] = organic solvent or mixture, 1,4-Dioxane
[12] = organic solvent or mixture, THF

Compound: CC(C)(O)c1cnn2c(-c3ccc(F)c(-c4c(F)cccc4C#N)c3)cnc2n1 [Free Base Polymorphic Form A, 2′,6-difluoro-5′-[3-(1-hydroxy-1-methylethyl)-imidazo[1,2-b][1,2,4]triazin-7-yl]biphenyl-2-carbonitrile]
- intrinsic dissolution rate [1]: 5×10^−5 mg cm^2 min-t
- solubility at 24 h ([2]; pH 1.8, simulated gastric fluid, SGF, initial pH 1.80): 0.00138 mg/mL (≈ 0.00353 mM)
- solubility at 24 h ([2]; simulated gastric fluid, pH 1.2 Hydrochloric Acid Buffer (50 mM), initial pH 1.17): 0.00977 mg/mL (≈ 0.025 mM)
- solubility at 24 h ([2]; FaSSIF, initial pH 6.51): 0.00211 mg/mL (≈ 0.00539 mM)
- solubility at 24 h ([2]; FeSSIF, initial pH 5.00): 0.00963 mg/mL (≈ 0.0246 mM)
- solubility at 24 h ([2]; Purified water, initial pH 7.02, target 2 mg/mL): 0.00014 mg/mL (≈ 0.000358 mM)
- pH value of supernatant ([2]; FaSSIF, initial pH 6.51): 6.50
- pH value of supernatant ([2]; FeSSIF, initial pH 5.00): 5.02
- pH value of supernatant ([2]; Purified water, initial pH 7.02): 8.73
- pH value of supernatant ([2]; SGF, initial pH 1.80): 1.86
- pH value of supernatant ([2]; pH 1.2 Hydrochloric Acid Buffer (50 mM), initial pH 1.17): 1.12
- pH value of supernatant [2, 7]: 3.00
- Measured Conc. (solubility) [2, 7]: <LOQ
- pH value of supernatant [2, 8]: 4.45
- Measured Conc. (solubility) [2, 8]: <LOQ
- pH value of supernatant [2, 9]: 7.42
- Measured Conc. (solubility) [2, 9]: <LOQ
- pH value of supernatant [2, 10]: 8.98
- Measured Conc. (solubility) [2, 10]: <LOQ
- Purity (%) ([3]; 40° C./75% RH (open), 1 week): 98.64%
- Assay (%) ([3]; 40° C./75% RH (open), 1 week): 102.35%
- Purity (%) ([3]; 80° C. (open), 1 week): 98.62%
- Assay (%) ([3]; 80° C. (open), 1 week): 101.60%
- Purity (%) ([3]; Initial): 98.72%
- Assay (%) ([3]; Initial): 105.51%
- Purity (%) ([3]; Light, ~50 h): 98.60%
- Assay (%) ([3]; Light, ~50 h): 104.28%

Compound: CC(C)(O)c1cnn2c(-c3ccc(F)c(-c4c(F)cccc4C#N)c3)cnc2n1 [TPA023B, 2′,6-difluoro-5′-[3-(1-hydroxy-1-methylethyl)-imidazo[1,2-b][1,2,4]triazin-7-yl]biphenyl-2-carbonitrile]
- pKa [4]: ~2.19
- solubility at 4 h [5, 11]: < 50 mg/mL
- solubility at 4 h ([5]; organic solvent or mixture, DMF): > 50 mg/mL
- solubility at 4 h ([5]; organic solvent or mixture, DMSO): > 50 mg/mL
- solubility at 4 h [5, 12]: < 50 mg/mL
- solubility ([5]; aqueous with cosolvent or surfactant or cyclodextrin, Acetone/H2O (1/1, v/v)): < 50 mg/mL
- solubility ([5]; aqueous with cosolvent or surfactant or cyclodextrin, EtOH/H2O (1/1, v/v)): < 50 mg/mL
- solubility [5, 11]: > 50 mg/mL
- solubility ([5]; organic solvent or mixture, Acetone): < 50 mg/mL
- solubility ([5]; organic solvent or mixture, Acetonitrile (ACN)): < 50 mg/mL
- solubility ([5]; organic solvent or mixture, DCM): < 50 mg/mL
- solubility ([5]; organic solvent or mixture, EtOAc): < 50 mg/mL
- solubility ([5]; organic solvent or mixture, Ethanol): < 50 mg/mL
- solubility ([5]; organic solvent or mixture, Heptane): < 50 mg/mL
- solubility ([5]; organic solvent or mixture, Isopropanol): < 50 mg/mL
- solubility ([5]; organic solvent or mixture, MEK): < 50 mg/mL
- solubility ([5]; organic solvent or mixture, MTBE): < 50 mg/mL
- solubility ([5]; organic solvent or mixture, Methanol): < 50 mg/mL
- solubility [5, 12]: > 50 mg/mL
- solubility ([5]; organic solvent or mixture, Toluene): < 50 mg/mL
- solubility ([5]; water, H2O): < 50 mg/mL
- Purity (%) ([6]; control in acetone, 50° C. about 4 hrs): 99.33%
- Purity (%) ([6]; with H2SO4 in acetone): 98.33%
- Purity (%) ([6]; with H3PO4 in acetone): 98.88%
- Purity (%) ([6]; with HCl in acetone): 98.61%
- Purity (%) ([6]; with methane sulfonic acid in acetone): 98.71%
- Purity (%) ([6]; with p-toluene sulfonic acid in acetone): 98.65%
